In patent US20060052600A1, “Amino-functional chalcones” (priority 2002, published 2006):
In brackets after ≈: the same amount, converted by molar mass.

Assays:
[1] = Determination of solubility; assay type: physicochemical; details: 0.3 M phosphate buffer, 24 hours
Description: Solubility of the compounds was determined by preparing a saturated solution of compound in 0.3 M phosphate buffer (pH 7.4±0.3) in a brown glass tube. The suspensions were rotated slowly for 24 hours. Aliquots were centrifuged for 10 minutes at 14.000 rpm and supernatants were diluted in 40% (v/v) acetonitrile in water prior to HPLC analysis. Concentrations of analytes were quantified against a standard curve and used as term of solubility.
The HPLC-UV method used for the assessment of solubility is the same as used in the in vitro metabolism assay.

[2] = test system: DHODH (dihydroorotate dehydrogenase); experiment: DHODH assay; assay type: biochemical; details: test concentration not given
[3] = test system: Staphylococcus aureus ATCC29213; experiment: MIC determination in broth microdilution assay
[4] = test system: Staphylococcus aureus ATCC33591 (resistant to methicillin); experiment: MIC determination in broth microdilution assay
[5] = test system: Staphylococcus intermedius #2357 (clinical isolate); experiment: MIC determination in broth microdilution assay
[6] = test system: Enterococcus faecalis ATCC29212; experiment: MIC determination in broth microdilution assay
[7] = test system: Enterococcus faecium #17501 (vancomycin-resistant clinical isolate); experiment: MIC determination in broth microdilution assay
[8] = test system: Streptococcus pneumoniae #998 (clinical isolate); experiment: MIC determination in broth microdilution assay
Eschericia coli ESS = experiment: MIC determination in broth microdilution assay
[9] = test system: panel of non-fastidious bacteria (Gram-positive pathogens and Eschericia coli); experiment: Activity against non-fastidious bacteria (panel, results in words); details: Gram-positive pathogens
[10] = Determination of metabolic stability (liver microsomes); assay type: in vitro ADME, rat; details: for Metabolic turn-over (rat) in vitro: 20 μM, 15 min, 37° C.
Description: Samples were incubated for 15 min at 37° C. and the reactions were terminated by addition of equal volumes of acetonitrile. Blank incubations were performed at the same concentration but without addition of microsomes. Both blank and microsome-containing samples were made in […] of three. […] The fraction of compound metabolised during the 15 min of incubation was determined by comparison of blank and microsome-containing samples using a Waters Alliance 2690 separation module and Waters 996 PDA-detector (Waters. […] This was followed by a 5 minutes linear gradient to initial conditions, which were maintained for 5 min. The flow rate was 0.20 ml/min and injection volume 10 μl.

[11] = test system: panel of anaerobic bacteria (Bacteroides fragilis, Clostridium perfringens, Clostridium difficele); assay type: cell-based; details: single concentration 100 μM

COc1ccc(C(=O)/C=C/c2ccc(CNCCN(C)C)cc2)cc1 [A005, (E)-3-{4-[(2-Dimethylamino-ethylamino)-methyl]-phenyl}-1-(4-methoxy-phenyl)-propenone]
Solubility in aqueous buffer at pH 7.4 [1]: >6 mg/ml

CCN(CC)Cc1ccccc1C(=O)/C=C/c1ccc(Cl)cc1Cl [A045, (E)-3-(2,4-Dichloro-phenyl)-1-(2-diethylaminomethyl-phenyl)-propenone]
Inhibition of DHODH [2]: 20%

CCCCN(CCCC)c1ccc(/C=C/C(=O)c2ccccc2CN(C)C)cc1 [A030, (E)-3-(4-Dibutylamino-phenyl)-1-(2-dimethylaminomethyl-phenyl)-propenone]
MIC, A: Staphylococcus aureus ATCC29213 [3]: 9.4 µM (≈ 3.69 µg/mL)
MIC, B: Staphylococcus aureus ATCC33591 [4]: 9.4 µM (≈ 3.69 µg/mL)
MIC, C: Staphylococcus intermedius #2357 [5]: 9.4 µM (≈ 3.69 µg/mL)
MIC, D: Enterococcus faecalis ATCC29212 [6]: 18.8 µM (≈ 7.38 µg/mL)
MIC, E: Enterococcus faecium #17501 [7]: 18.8 µM (≈ 7.38 µg/mL)
MIC, F: Streptococcus pneumoniae #998 [8]: 18.8 µM (≈ 7.38 µg/mL)
MIC, H: Eschericia coli ESS (Eschericia coli ESS): 18.8 µM (≈ 7.38 µg/mL)
activity against the ESS strain of E. coli (Eschericia coli ESS): considerable activity
potency against Gram-positive pathogens in comparison with Licochalcone A [9]: increased potency

COc1ccc(C(=O)/C=C/c2cccc(CN3CCN(C)CC3)c2)cc1 [A013, (E)-1-(4-Methoxy-phenyl)-3-[3-(4-methyl-piperazin-1-ylmethyl)-phenyl]-propenone]
Solubility in aqueous buffer at pH 7.4 [1]: 31.2 mg/ml

CNCc1cccc(/C=C/C(=O)c2ccc(OC)cc2)c1 [A099, (E)-1-(4-Methoxy-phenyl)-3-(3-methylaminomethyl-phenyl)-propenone]
Metabolic turn-over (rat) in vitro [10]: 7%

COc1ccc(OC)c(/C=C/C(=O)c2ccccc2CN(C)C)c1 [A029, (E)-3-(2,5-Dimethoxy-phenyl)-1-(2-dimethylaminomethyl-phenyl)-propenone]
Metabolic turn-over (rat) in vitro [10]: 3%

CCCCN(CCCC)c1ccc(/C=C/C(=O)c2ccc(CN(C)C)cc2)cc1 [A033, (E)-3-(4-Dibutylamino-phenyl)-1-(4-dimethylaminomethyl-phenyl)-propenone]
MIC, A: Staphylococcus aureus ATCC29213 [3]: 4.7 µM (≈ 1.85 µg/mL)
MIC, B: Staphylococcus aureus ATCC33591 [4]: 9.4 µM (≈ 3.69 µg/mL)
MIC, C: Staphylococcus intermedius #2357 [5]: 4.7 µM (≈ 1.85 µg/mL)
MIC, D: Enterococcus faecalis ATCC29212 [6]: 9.4 µM (≈ 3.69 µg/mL)
MIC, E: Enterococcus faecium #17501 [7]: 9.4 µM (≈ 3.69 µg/mL)
MIC, F: Streptococcus pneumoniae #998 [8]: 75.0 µM (≈ 29.4 µg/mL)
MIC, H: Eschericia coli ESS (Eschericia coli ESS): 150.0 µM (≈ 58.9 µg/mL)
potency against Gram-positive pathogens in comparison with Licochalcone A [9]: increased potency

C=CC(C)(C)c1cc(/C=C/C(=O)c2cccc(CN(C)C)c2)c(OC)cc1O [A137, (E)-3-[5-(1,1-Dimethyl-allyl)-4-hydroxy-2-methoxy-phenyl]-1-(3-dimethylaminomethyl-phenyl)-propenone]
MIC, A: Staphylococcus aureus ATCC29213 [3]: 4.7 µM (≈ 1.78 µg/mL)
MIC, B: Staphylococcus aureus ATCC33591 [4]: 9.4 µM (≈ 3.57 µg/mL)
MIC, C: Staphylococcus intermedius #2357 [5]: 9.4 µM (≈ 3.57 µg/mL)
MIC, D: Enterococcus faecalis ATCC29212 [6]: 9.4 µM (≈ 3.57 µg/mL)
MIC, E: Enterococcus faecium #17501 [7]: 9.4 µM (≈ 3.57 µg/mL)
MIC, F: Streptococcus pneumoniae #998 [8]: 37.5 µM (≈ 14.2 µg/mL)

COc1ccc(C(=O)/C=C/c2cccc(CN(C)CCN(C)C)c2)cc1 [A069, (E)-3-(3-{[(2-Dimethylamino-ethyl)-methyl-amino]-methyl}-phenyl)-1-(4-methoxy-phenyl)-propenone]
Solubility in aqueous buffer at pH 7.4 [1]: >10 mg/ml

CN1CCN(Cc2ccccc2C(=O)/C=C/c2ccc(Cl)cc2Cl)CC1 [A026, (E)-3-(2,4-Dichloro-phenyl)-1-[2-(4-methyl-piperazin-1-ylmethyl)-phenyl]-propenone]
activity against anaerobic bacteria [11]: activity against all microorganisms within the test panel

CN(C)Cc1cccc(C(=O)/C=C/c2ccc(Cl)cc2Cl)c1 [A020, (E)-3-(2,4-Dichloro-phenyl)-1-(3-dimethylaminomethyl-phenyl)-propenone]
Inhibition of DHODH [2]: 23%

COc1ccc(OC)c(/C=C/C(=O)c2ccccc2CN2CCNCC2)c1 [A049, (E)-3-(2,5-Dimethoxy-phenyl)-1-(2-piperazin-1-ylmethyl-phenyl)-propenone]
Metabolic turn-over (rat) in vitro [10]: 0%
Solubility in aqueous buffer at pH 7.4 [1]: 6.3 mg/ml

O=C(/C=C/c1ccc(Cl)cc1Cl)c1ccccc1CN1CCOCC1 [A037, (E)-3-(2,4-Dichloro-phenyl)-1-(2-morpholin-4-ylmethyl-phenyl)-propenone]
activity against anaerobic bacteria [11]: activity against all microorganisms within the test panel

CN(C)Cc1ccc(C(=O)/C=C/c2ccc(Cl)cc2Cl)cc1 [A011, (E)-3-(2,4-Dichloro-phenyl)-1-(4-dimethylaminomethyl-phenyl)-propenone]
activity against anaerobic bacteria [11]: activity against all microorganisms within the test panel

CN1CCN(Cc2cccc(C(=O)/C=C/c3ccc(Cl)cc3Cl)c2)CC1 [A021, (E)-3-(2,4-Dichloro-phenyl)-1-[3-(4-methyl-piperazin-1-ylmethyl)-phenyl]-propenone]
Inhibition of DHODH [2]: 27%

CN(C)Cc1ccccc1C(=O)/C=C/c1cccc(Nc2cccnc2)c1 [A090, (E)-1-(2-Dimethylaminomethyl-phenyl)-3-[3-(pyridin-3-ylamino)-phenyl]-propenone]
activity against anaerobic bacteria [11]: activity against all microorganisms within the test panel

CCCN(CCC)c1ccc(/C=C/C(=O)c2ccccc2CN(C)C)c(OCC)c1 [A084, (E)-1-(2-Dimethylaminomethyl-phenyl)-3-(4-dipropylamino-2-ethoxy-phenyl)-propenone]
activity against the ESS strain of E. coli (Eschericia coli ESS): considerable activity

COc1ccc(C(=O)/C=C/c2ccc(OC)c(CN(C)C)c2)cc1 [A086, (E)-3-(3-Dimethylaminomethyl-4-methoxy-phenyl)-1-(4-methoxy-phenyl)-propenone]
Solubility in aqueous buffer at pH 7.4 [1]: 8.9 mg/ml

CCCCN(CCCC)c1ccc(/C=C/C(=O)c2ccc(OC)c(CN(C)C)c2)cc1 [A110, (E)-3-(4-Dibutylamino-phenyl)-1-(3-dimethylaminomethyl-4-methoxy-phenyl)-propenone]
Metabolic turn-over (rat) in vitro [10]: 6%

C=CC(C)(C)c1cc(/C=C/C(=O)c2ccccc2CN2CCN(C)CC2)c(OC)cc1Cl [A083, (E)-3-[4-Chloro-5-(1,1-dimethyl-allyl)-2-methoxy-phenyl]-1-[2-(4-methyl-piperazin-1-ylmethyl)-phenyl]-propenone]
MIC, A: Staphylococcus aureus ATCC29213 [3]: 9.4 µM (≈ 4.26 µg/mL)
MIC, B: Staphylococcus aureus ATCC33591 [4]: 9.4 µM (≈ 4.26 µg/mL)
MIC, C: Staphylococcus intermedius #2357 [5]: 18.8 µM (≈ 8.52 µg/mL)
MIC, D: Enterococcus faecalis ATCC29212 [6]: 18.8 µM (≈ 8.52 µg/mL)
MIC, E: Enterococcus faecium #17501 [7]: 9.4 µM (≈ 4.26 µg/mL)
MIC, F: Streptococcus pneumoniae #998 [8]: 18.8 µM (≈ 8.52 µg/mL)
MIC, H: Eschericia coli ESS (Eschericia coli ESS): 9.4 µM (≈ 4.26 µg/mL)
activity against the ESS strain of E. coli (Eschericia coli ESS): considerable activity
potency against Gram-positive pathogens in comparison with Licochalcone A [9]: increased potency

CCCCN(CCCC)c1cccc(/C=C/C(=O)c2ccc(OC)c(CN(C)C)c2)c1 [A129, (E)-3-(3-Dibutylamino-phenyl)-1-(3-dimethylaminomethyl-4-methoxy-phenyl)-propenone]
MIC, A: Staphylococcus aureus ATCC29213 [3]: 4.7 µM (≈ 1.99 µg/mL)
MIC, B: Staphylococcus aureus ATCC33591 [4]: 9.4 µM (≈ 3.97 µg/mL)
MIC, C: Staphylococcus intermedius #2357 [5]: 9.4 µM (≈ 3.97 µg/mL)
MIC, D: Enterococcus faecalis ATCC29212 [6]: 9.4 µM (≈ 3.97 µg/mL)
MIC, E: Enterococcus faecium #17501 [7]: 9.4 µM (≈ 3.97 µg/mL)
MIC, F: Streptococcus pneumoniae #998 [8]: 37.5 µM (≈ 15.8 µg/mL)
MIC, H: Eschericia coli ESS (Eschericia coli ESS): 9.4 µM (≈ 3.97 µg/mL)

CCCCN(CCCC)c1ccc(/C=C/C(=O)c2ccc(CN3CCN(C)CC3)cc2)cc1 [A025, (E)-3-(4Dibutylamino-phenyl)-1-[4-(4-methyl-piperazin-1-ylmethyl)-phenyl]-propenone]
Inhibition of DHODH [2]: 26%
MIC, A: Staphylococcus aureus ATCC29213 [3]: 9.4 µM (≈ 4.21 µg/mL)
MIC, B: Staphylococcus aureus ATCC33591 [4]: 9.4 µM (≈ 4.21 µg/mL)
MIC, C: Staphylococcus intermedius #2357 [5]: 9.4 µM (≈ 4.21 µg/mL)
MIC, D: Enterococcus faecalis ATCC29212 [6]: 9.4 µM (≈ 4.21 µg/mL)
MIC, E: Enterococcus faecium #17501 [7]: 9.4 µM (≈ 4.21 µg/mL)
MIC, F: Streptococcus pneumoniae #998 [8]: 37.5 µM (≈ 16.8 µg/mL)
MIC, H: Eschericia coli ESS (Eschericia coli ESS): 75.0 µM (≈ 33.6 µg/mL)
potency against Gram-positive pathogens in comparison with Licochalcone A [9]: increased potency

COc1ccc(Nc2cccnc2)cc1/C=C/C(=O)c1ccccc1CN(C)C [A102, (E)-1-(2-Dimethylaminomethyl-phenyl)-3-[2-methoxy-5-(pyridin-3-ylamino)-phenyl]-propenone]
Metabolic turn-over (rat) in vitro [10]: 2%
metabolism (turn-over), rat ([10]; rat): 2%

COc1ccc(C(=O)/C=C/c2cccc(CNCCN(C)C)c2)cc1 [A010, (E)-3-{3-[(2-Dimethylamino-ethylamino)-methyl]-phenyl}-1-(4-methoxy-phenyl)-propenone]
Metabolic turn-over (rat) in vitro [10]: 1%
Solubility in aqueous buffer at pH 7.4 [1]: 33.4 mg/ml
